The nature of data set [1]: MTT cytotoxicity in uninduced ∆K280 TauRD‐DsRed 293 cells. Type of data set: cell-based. Particulars: human. Here is the method: (§1) Licochalcone A and five derivative LM compounds were tested (Figure 1a). All six compounds were soluble up to 100 μM in a cell culture medium (Figure S1a). Based on molecular weight (MW), hydrogen bond donors (HBD), hydrogen bond acceptors (HBA), and calculated octanol/water partition coefficient (cLogP), all six compounds meet Lipinski's criteria in predicting oral bioavailability (Lipinski, Lombardo, Dominy, & Feeney, 1997) (Figure S1b). […] To choose the optimal treatment dose used for the best efficacy of the candidate compounds, a specific type of biphasic dose response of a compound called hormesis should take into consideration. Evidence has shown that a wide range of pharmaceutical products display a hermetic dose‐response feature, characterized by a low‐dose stimulation and a high‐dose inhibition (Calabrese et al., 2018; Concetta Scuto et al., 2019; Pilipenko et al., 2019). Therefore, we tested the compounds at a range of doses to find the optimal dose for the best therapeutic effect and the least cytotoxicity. Firstly, MTT assay was performed using uninduced ∆K280 TauRD‐DsRed 293 and retinoic acid‐differentiated SH‐SY5Y cells following treatment with the test compounds (0.1–10 μM) for 3 (for 293 cells) or 7 (for SH‐SY5Ycells) days. […] Congo red is an amyloidogenic dye known to reduce Aβ neurotoxicity (Lorenzo & Yankner, 1994).
(§2) Licochalcone A was purchased from Sigma-Aldrich, St. Louis, MO, USA. In-house LM compounds were synthesized and characterized by NMR spectrum as described (Lee et al., 2012, 2015, 2018). Tet-On ∆K280 TauRD-DsRed 293 and SH-SY5Y cells (Chang et al., 2016) were cultured in Dulbecco’s modified Eagles medium (DMEM) (293) or DMEM-F12 (SH-SY5Y) containing 10% fetal bovine serum (Invitrogen, Carlsbad, CA, USA), 5 μg/ml of blasticidin, and 100 μg/ml of hygromycin (InvivoGen, San Diego, CA, USA). Compound cytotoxicity was assessed by colorimetric assay for measuring cell metabolic activity. Briefly, 5 × 10^4 cells were plated (48-well plates), grown for 20 h, and treated with the test compounds ([…]). […], 20 µl of 3-(4,5-dimethylthiazol-2-yl)-2,5-diphenyltetrazolium bromide (MTT, 5 mg/ml in PBS; Sigma-Aldrich) was added to the cells and incubated at 37°C for 3 h. Then 200 µl of lysis buffer (10% Triton X-100, 0.1 N HCl, 18% isopropanol) was added and the absorbance of the insoluble product at OD 570 nm was measured by a microplate reader (FLx800 fluorescence microplate reader, Bio-Tek, Winooski, VT, USA). The half-maximal inhibitory concentration (IC50) was calculated using the interpolation method.
(§3) Figure S1. Test compounds. (a) Solubility (in cell culture medium) of test compounds. (b) Molecular weight (MW), hydrogen bond donor (HBD), hydrogen bond acceptor (HBA), calculated octanol-water partition coefficient (cLogP), polar surface area (PSA), and predicted blood-brain barrier (BBB) score of test compounds. (c) Cytotoxicity of test compounds against ∆K280 TauRD-DsRed 293 and SH-SY5Y cells using the MTT assay. Uninduced 293 cells were plated on day 1 and treated with 0.1–10 μM test compounds on day 2. Cell viability was measured on day 5 (n = 3). In addition, uninduced SH-SY5Y cells were seeded with all trans retinoic acid (RA; 10 µM) on day 1 and treated with 0.1–10 μM test compounds on day 2. Cell viability was measured on day 9 (n = 3). To normalize, the relative viability in compound untreated cells was set at 100%. IC50 values are listed.

Data set [2] in a line: MTT cytotoxicity in uninduced retinoic acid‐differentiated SH‐SY5Y cells. Type of data set: cell-based. The note with it: human. The method, then: as §1, §2, §3
The nature of data set [3]: Cytotoxicity by survived cell number in 293 cells expressing ∆K280 TauRD‐DsRed. Type of data set: cell-based. Particulars: human; 293 cells expressing ∆K280 TauRD‐DsRed for 3 days. The text has this: In ∆K280 TauRD‐DsRed 293 cells, a proaggregant (ΔK280) Tau repeat domain (TauRD) containing residues 244–372 of the full‐length 4R2N Tau441 was fused in‐frame with DsRed fluorophore. Compared to the wild‐type TauRD, the poorly folded ΔK280 TauRD formed aggregates, which adversely affected the folding of fused DsRed and thus decreased DsRed fluorescence, as also evidenced by increase in thioflavin S fluorescence emission (Chang et al., 2017). Thioflavin S is a reporter dye for studies of Tau toxicity and pharmacologic prevention in cell model of tauopathy (Pickhardt et al., 2017). It binds to amyloid fibrils but not monomers and gives a distinct increase in fluorescence emission. Inhibition of Tau aggregation may improve DsRed misfolding, leading to increased fluorescence in ΔK280 TauRD‐DsRed‐expressing cells. Utilizing the established Tet‐on ΔK280 TauRD‐DsRed 293 cells (Chang et al., 2016), licochalcone A and LM compounds were tested for effects of reducing Tau misfolding and anti‐oxidation (Figure S2a). Congo red was included for comparison. […] In the following experiments, DsRed fluorescence was measured in wells containing at least 80% viable cells. […] Due to the features of their effectiveness and less cytotoxicity, licochalcone A (1 μM) and LM‐031 (1 μM) were chosen as the candidate compounds for the following experiments. […] Representative DsRed and thioflavin S fluorescent images of ∆K280 TauRD‐DsRed‐expressing cells untreated or treated with congo red (10 µM), licochalcone A (1 µM), or LM‐031 (1 µM) are shown in Figure S2d.
DsRed fluorescence of proaggregant ∆K280 TauRD-DsRed 293 cells was evaluated to reflect Tau aggregation. On day 1, cells were seeded on a 96-well plate in a density of 0.8 × 10^4 cells/well. […] On the fifth day, the cells were stained with Hoechst 33342 (0.1 µg/ml; Sigma-Aldrich) for 30 min to identify total cell number; DsRed fluorescence images (543 nm excitation and 593 nm emission) were automatically captured by using the ImageXpressMICRO high-content imaging system (Molecular Devices, Sunnyvale, CA, USA) and analyzed using MetaXpress image acquisition and analysis software (Molecular Devices). In addition, the cells were fixed with paraformaldehyde (4% in PBS) for 15 minutes, permeabilized with methanol (80%) for 6 minutes at -20°C, incubated with thioflavin S (0.02%; Sigma-Aldrich) and 4’,6-diamidino-2-phenylindole (DAPI) (0.1 μg/ml; Sigma-Aldrich) for 5 minutes, and washed in ethanol (50%). Thioflavin S images ([…]) were captured and analyzed as described. In general, 2 × 10^4 cells in each biological replicate were analyzed.
Figure S2. ΔK280 TauRD-DsRed 293 cells. (a) Experimental flow chart. Cells were plated on day 1. On day 2, the cells were treated with congo red or test compounds for 8 h; addition of doxycycline (Dox; 1 µg/ml) followed. DsRed/thioﬂavin S fluorescence, ROS, and caspase 3 activity were assessed on day 5. (b) Cytotoxicity of the test compounds against 293 cells expressing ∆K280 TauRD-DsRed for 3 days using the survived cell number (n = 3). IC50 values are listed. (c) Dose response curves of LM-031 based on DsRed fluorescence measurement. (d) Fluorescent images of ΔK280 TauRD-DsRed 293 cells untreated or treated with congo red (10 µM), licochalcone A (1 µM), or LM-031 (1 µM). Nuclei were counterstained with Hoechst 33342 (blue), and merged DsRed and Hoechst 33342 signals were shown. In addition, tau aggregation was monitored by staining with thioﬂavin S (green).

Usually IC50 stands for the concentration needed to halve the response being measured. Turning to `COc1ccc(O)c(/C=C/C(=O)c2ccccc2)c1` [LM‐006], the IC50 at 3 days in data set [1] was 6.4 µM; in data set [3], 5.3 µM. Half-maximal inhibition in data set [2] (IC50 at 7 days) was put at 4.7 µM.

Turning to `Cc1ccc(/C=C/C(=O)c2c(O)c3ccccc3oc2=O)cc1` [LM‐016], the IC50 at 3 days in data set [1] came out at 9.3 µM; in data set [3], 9.4 µM. In data set [2], 6 µM corresponded to half-maximal inhibition (IC50 at 7 days).

With `COc1cccc(/C=C/C(=O)c2ccc(O)cc2)c1O` [LM‐026], the half-maximal inhibitory concentration (IC50) at 3 days in data set [1] was 7.7 µM; in data set [3], 8.5 µM. Further, the IC50 at 7 days in data set [2] turned out to be 5.4 µM.

Take Lucifer yellow: the “transport across PAMPA membrane (integrity marker)” value was “undetectable”.

Values taken from publication PMC7433010, “Exploration of multi‐target effects of 3‐benzoyl‐5‐hydroxychromen‐2‐one in Alzheimer’s disease cell and mouse models” (Aging Cell, 2020).
